Reference: publication PMC5843753, “Comparative analysis of plant isochorismate synthases reveals structural mechanisms underlying their distinct biochemical properties” (Bioscience Reports, 2018)

Legend:
AtICS1 [1] = molecular target: T1, AtICS1 (Arabidopsis thaliana, UniProt Q9S7H8, T531A); assay: isochorismate converted into SA, SA measured; assay type: biochemical; conditions: 1 mM barium chorismate, 10 mM MgCl2, pH 7.5, 30 C, 1 h; crude E. coli fraction
T1 construct: gene ICS1; putative chloroplast transit peptide removed, N-terminal His6 (pET28a), E. coli SHuffle T7, crude desalted protein fraction; also C-terminal 3xFLAG in N. benthamiana leaves

NtICS = molecular target: T2, NtICS (Nicotiana tabacum, UniProt A0A286T848); assay: in planta SA accumulation with co-expressed IPL; assay type: cell-based; conditions: endogenous chorismate, N. benthamiana leaves, ICS to IPL 1:19
T2 sequence (A0A286T848 48-584): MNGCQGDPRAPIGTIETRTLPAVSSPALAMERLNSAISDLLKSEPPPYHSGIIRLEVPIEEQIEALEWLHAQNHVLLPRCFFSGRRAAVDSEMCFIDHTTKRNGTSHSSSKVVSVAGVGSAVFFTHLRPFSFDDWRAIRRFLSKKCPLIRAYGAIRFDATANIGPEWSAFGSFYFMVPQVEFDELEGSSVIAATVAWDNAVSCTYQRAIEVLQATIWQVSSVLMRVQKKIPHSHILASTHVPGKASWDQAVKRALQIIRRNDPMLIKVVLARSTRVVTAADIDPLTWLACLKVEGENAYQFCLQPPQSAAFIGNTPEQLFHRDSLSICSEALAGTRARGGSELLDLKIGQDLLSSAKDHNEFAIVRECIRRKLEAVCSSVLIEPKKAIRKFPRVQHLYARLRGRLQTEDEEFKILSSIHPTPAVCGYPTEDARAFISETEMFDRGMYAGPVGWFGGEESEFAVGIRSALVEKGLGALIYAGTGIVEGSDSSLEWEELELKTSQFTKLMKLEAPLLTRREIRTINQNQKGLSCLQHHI

EntC = molecular target: T3, EntC (Escherichia coli, UniProt P0AEJ2); assay: isochorismate converted into SA, SA measured; assay type: biochemical; conditions: 1 mM barium chorismate, 10 mM MgCl2, pH 7.5, 30 C, 1 h; crude E. coli fraction; linearity not confirmed for EntC in E. coli
T3 construct: N-terminal His6 (pET28a), E. coli SHuffle T7, crude desalted protein fraction; also with tobacco Rubisco small subunit transit peptide and 3xFLAG in N. benthamiana
T3 sequence (P0AEJ2 1-391): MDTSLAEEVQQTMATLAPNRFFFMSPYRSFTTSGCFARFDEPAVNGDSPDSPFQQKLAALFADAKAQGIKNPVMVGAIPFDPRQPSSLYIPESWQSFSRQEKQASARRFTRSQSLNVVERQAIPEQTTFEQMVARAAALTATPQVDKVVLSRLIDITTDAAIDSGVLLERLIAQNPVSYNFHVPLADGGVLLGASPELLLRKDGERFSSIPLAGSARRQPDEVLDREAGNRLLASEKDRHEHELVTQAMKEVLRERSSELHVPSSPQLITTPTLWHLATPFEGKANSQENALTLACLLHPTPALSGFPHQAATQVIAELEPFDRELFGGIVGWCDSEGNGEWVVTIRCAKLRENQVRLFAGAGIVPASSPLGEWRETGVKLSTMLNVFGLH

NbICS = NbICS (Nicotiana benthamiana, UniProt A0A286T8R2); assay: in planta SA accumulation with co-expressed IPL; assay type: cell-based; conditions: endogenous chorismate, N. benthamiana leaves, ICS to IPL 1:19
AtICS1 [2] = molecular target: T4, AtICS1 (Arabidopsis thaliana, UniProt Q9S7H8); assay: isochorismate converted into SA, SA measured; assay type: biochemical; conditions: 1 mM barium chorismate, 10 mM MgCl2, pH 7.5, 30 C, 1 h; crude E. coli fraction
T4 construct: gene ICS1; putative chloroplast transit peptide removed, N-terminal His6 (pET28a), E. coli SHuffle T7, crude desalted protein fraction; also C-terminal 3xFLAG in N. benthamiana leaves

OsICS = molecular target: T5, OsICS (Oryza sativa, UniProt A0A286T796); assay: in planta SA accumulation with co-expressed IPL; assay type: cell-based; conditions: endogenous chorismate, N. benthamiana leaves, transit peptide replaced
T5 construct: own transit peptide replaced by that of AtICS1 or of tobacco Rubisco small subunit; N. benthamiana leaves, P. fluorescens IPL PmsB as coupling enzyme
T5 sequence (A0A286T796 46-581): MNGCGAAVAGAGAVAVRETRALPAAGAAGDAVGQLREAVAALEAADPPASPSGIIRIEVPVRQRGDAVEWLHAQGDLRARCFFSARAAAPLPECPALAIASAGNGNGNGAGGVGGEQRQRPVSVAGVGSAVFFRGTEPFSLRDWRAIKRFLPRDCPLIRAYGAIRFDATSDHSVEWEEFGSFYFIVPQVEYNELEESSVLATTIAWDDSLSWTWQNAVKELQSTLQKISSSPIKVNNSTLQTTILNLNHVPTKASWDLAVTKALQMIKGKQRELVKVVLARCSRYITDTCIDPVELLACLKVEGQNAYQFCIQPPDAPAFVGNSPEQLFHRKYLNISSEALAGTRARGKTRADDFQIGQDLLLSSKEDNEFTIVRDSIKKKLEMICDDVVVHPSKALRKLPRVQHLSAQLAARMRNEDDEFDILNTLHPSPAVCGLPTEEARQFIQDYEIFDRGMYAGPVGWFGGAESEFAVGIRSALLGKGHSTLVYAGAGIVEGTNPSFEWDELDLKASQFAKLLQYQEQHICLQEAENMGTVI

T1 sequence (Q9S7H8 46-569 T531A): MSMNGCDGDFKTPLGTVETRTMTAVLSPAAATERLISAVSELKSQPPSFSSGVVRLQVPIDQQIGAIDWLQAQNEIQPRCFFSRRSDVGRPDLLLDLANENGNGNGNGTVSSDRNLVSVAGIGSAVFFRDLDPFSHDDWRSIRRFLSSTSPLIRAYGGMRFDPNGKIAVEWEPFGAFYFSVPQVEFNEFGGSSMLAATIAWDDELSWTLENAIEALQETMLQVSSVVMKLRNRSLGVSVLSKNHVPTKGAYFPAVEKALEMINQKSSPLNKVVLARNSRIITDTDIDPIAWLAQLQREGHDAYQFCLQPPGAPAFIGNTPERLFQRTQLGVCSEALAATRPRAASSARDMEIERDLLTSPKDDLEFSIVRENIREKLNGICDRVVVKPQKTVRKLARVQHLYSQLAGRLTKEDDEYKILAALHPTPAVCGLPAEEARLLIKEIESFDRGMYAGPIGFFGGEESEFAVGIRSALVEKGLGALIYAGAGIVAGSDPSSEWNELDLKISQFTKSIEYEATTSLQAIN
Sequence of NbICS (A0A286T8R2 53-590): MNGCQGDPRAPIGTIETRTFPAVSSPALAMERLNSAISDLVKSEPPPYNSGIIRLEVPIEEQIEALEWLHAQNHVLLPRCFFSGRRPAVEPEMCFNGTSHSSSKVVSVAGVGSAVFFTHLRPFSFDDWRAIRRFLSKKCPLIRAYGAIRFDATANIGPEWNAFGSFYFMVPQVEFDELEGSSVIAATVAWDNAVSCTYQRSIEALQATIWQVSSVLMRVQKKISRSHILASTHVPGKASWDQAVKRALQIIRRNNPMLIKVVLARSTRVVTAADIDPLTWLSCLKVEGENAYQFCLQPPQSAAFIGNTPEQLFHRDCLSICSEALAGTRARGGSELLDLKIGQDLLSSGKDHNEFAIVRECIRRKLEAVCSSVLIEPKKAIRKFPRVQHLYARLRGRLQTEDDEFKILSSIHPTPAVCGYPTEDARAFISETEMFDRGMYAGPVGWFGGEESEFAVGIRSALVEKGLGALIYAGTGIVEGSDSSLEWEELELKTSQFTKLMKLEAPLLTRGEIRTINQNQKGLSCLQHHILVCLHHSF
T4 sequence (Q9S7H8 46-569): as the sequence (Q9S7H8 46-569 T531A) above, with A486T counted along it

Question: For `C=C(O[C@@H]1C=C(C(=O)O)C=C[C@H]1O)C(=O)O` [chorismate], which ICS activity (AtICS1 [1]) is on record?
Answer: The T531A mutant showed the lowest activity compared with the S537T and I550A mutants

Question: What about the SA level (NtICS) of the same compound?
Answer: expression of NtICS or NbICS with IPL resulted in significant increases in the levels of SA

Question: What about the ICS activity (EntC) of the same compound?
Answer: AtICS1 and EntC showed activity that was much higher than the empty vector control

Question: And the SA level (NbICS)?
Answer: expression of NtICS or NbICS with IPL resulted in significant increases in the levels of SA

Question: What about the ICS activity (AtICS1 [2]) of the same compound?
Answer: AtICS1 and EntC showed activity that was much higher than the empty vector control

Question: What about the SA level (OsICS) of the same compound?
Answer: OsICS with TP^AtICS1 or TP^SS showed low but significant levels of ICS activity in planta
